Data taken from the NIST ThermoML archive (doi:10.1016/j.jct.2017.06.001).

Assay: xn = mol fraction of the nth substance listed
Details: 308.15 K, 100 kPa, Liquid; for speed of sound: Frequency=5 MHz, Pulse-echo method; for mass density: Vibrating tube method

OCCCCCO [1,5-pentanediol] + O
Details	mass density [kg/m3]	speed of sound [m/s]
x1 = 0.005	993.57	–
x1 = 0.0101	993.45	–
x1 = 0.0196	993.6	–
x1 = 0.0251	993.93	–
x1 = 0.0304	994.32	–
x1 = 0.05	995.28	–
x1 = 0.0769	995.98	–
x1 = 0.0798	–	1647
x1 = 0.0835	–	1649.2
x1 = 0.0879	–	1651.5
x1 = 0.0918	–	1653.4
x1 = 0.0964	–	1655.5
x1 = 0.1002	996.54	1657
x1 = 0.106	–	1659
x1 = 0.1116	–	1660.7
x1 = 0.1172	–	1662.1
x1 = 0.1233	–	1663.4
x1 = 0.131	–	1664.8
x1 = 0.1377	–	1665.7
x1 = 0.1435	–	1666.3
x1 = 0.1438	996.71	–
x1 = 0.1514	–	1666.9
x1 = 0.161	–	1667.4
x1 = 0.1675	–	1667.5
x1 = 0.1737	–	1667.6
x1 = 0.1787	–	1667.6
x1 = 0.1838	–	1667.5
x1 = 0.1845	996.26	–
x1 = 0.1893	–	1667.4
x1 = 0.1953	–	1667.2
x1 = 0.2011	–	1667
x1 = 0.2239	–	1665.8
x1 = 0.2306	–	1665.4
x1 = 0.2378	–	1664.9
x1 = 0.2491	–	1664
x1 = 0.2581	–	1663.3
x1 = 0.2683	–	1662.5
x1 = 0.2832	–	1661.2
x1 = 0.3005	–	1659.5
x1 = 0.3223	–	1657.4
x1 = 0.3402	–	1655.5
x1 = 0.3515	–	1654.3
x1 = 0.3735	–	1651.8
x1 = 0.3924	–	1649.6
x1 = 0.4062	–	1647.9
x1 = 0.4304	–	1644.9
x1 = 0.4462	–	1642.8
x1 = 0.4661	–	1640.2
x1 = 0.4803	–	1638.3
x1 = 0.4957	–	1636.1
x1 = 0.5119	–	1633.9
x1 = 0.5238	–	1632.2
x1 = 0.5406	–	1629.8
x1 = 0.5482	–	1628.7
x1 = 0.5622	–	1626.7
x1 = 0.5848	–	1623.5
x1 = 0.6035	–	1620.8
x1 = 0.6216	–	1618.2
x1 = 0.6446	–	1615
x1 = 0.6646	–	1612.2
x1 = 0.6864	–	1609.3
x1 = 0.7086	–	1606.4
x1 = 0.7293	–	1603.7
x1 = 0.7497	–	1601.1
x1 = 0.7689	–	1598.8
x1 = 0.7904	–	1596.2
x1 = 0.8099	–	1593.9
x1 = 0.8308	–	1591.5
x1 = 0.8561	–	1588.6
x1 = 0.8812	–	1585.8
x1 = 0.9098	–	1582.5
x1 = 0.9326	–	1579.9
x1 = 0.9519	–	1577.5
x1 = 0.9707	–	1575.2
x1 = 0.9812	–	1573.8
x1 = 0.9864	–	1573.2
x1 = 0.9944	–	1572.1
x1 = 1	–	1571.3
